Experimental data reported in patent publication US5441983A, “Treatment of infection by enveloped virus with calix(N)arene compounds” (Genelabs Incorporated, priority 1992, dated 1995).
≈ marks a conversion by molar mass, not a printed value.

How the values were obtained:
HIV-HXB = experiment: Inhibition of syncytia formation, HIV-HXB (HTLV-IIIB); conditions: for EC100: Human immunodeficiency virus 1, 18 h, read-out: HIV-HXB ED100, complete inhibition of syncytia formation
Experimental: (§13) Briefly, cells chronically infected with HTLV-IIIB or RF-II HIV strains were incubated in the presence of serial dilutions of the selected KY compound, then further cocultured with indicator cells. The extent of syncytia formation was scored under phase microscopy.
(§14) Representative calix(n)arene compounds from Table 2 were tested for inhibition of cytopathic effects in cells infected with one of two HTLV-III strains, HTLV-IIIB and RF-II strains, as described in Example 12, and in the subsection above.
(§15) Human CD4^+ indicator cells (VB) and chronically infected H9 cells were maintained in RPMI-1640 medium supplemented with 5% fetal calf serum, 100 Units of penicillin per ml and 100 μg of streptomycin per ml at 37° C. in a humidified incubator containing 7% CO2.
(§16) For the fusion assay, serial dilutions between 1:2 and 1:2^8 of a selected KY compound, 1 mg/ml in PBS were made in a 96 well round bottom plate. The diluted KY compound was transferred to a 96 well flat-bottom plate. To each well was added 25 μg chronically infected H9 cells (at 2×10^6, cells/ml), or cells chronically infected with RF-II strain HIV, followed by incubation at 37° C. for 45 minutes. To each well was then added 25 μl VB cells (about 5×10^4 cells), and the cells and virus isolates were cocultured for 18 hours in a humid 5% CO2 atmosphere.

HIV-RF-II = experiment: Inhibition of syncytia formation, HIV-RF-II; conditions: for EC100: Human immunodeficiency virus 1, 18 h, read-out: HIV-RF-II ED100, complete inhibition of syncytia formation
Experimental: as §13, §14, §15, §16

HSV-2 = experiment: Plaque reduction assay, HSV-2, Vero cells; format: cell-based, HSV-2 (333); conditions: Human alphaherpesvirus 2, Vero
Experimental: (§1) used in Table 3 were further tested for activity against HSV infection in
(§2) a plaque reduction assay, as detailed in Example 6. Here Vero cells, after
(§3) overnight incubation, were exposed to serial dilutions of KY compound,
(§4) from 0.625-10 μg/ml, and HSV-1 or HSV-2 virus for two hours. After
(§5) washing to remove drug and extracellular virus, the cells were further
(§6) incubated for 2 days, then stained and counted for plaque formation.
(§7) Percent inhibition was determined by dividing plaques produced by total
(§8) number of plaques in infected, untreated controls. From the concentration
(§9) effect curve of plaque inhibition (expressed as percent of control), the
(§10) concentration of compound required to produce 50% plaque reduction,
(§11) IC50, was determined. The IC50 values for infection by HSV-1 and
(§12) HSV-2 infection is given in the right-hand columns in Table 3. With

HSV-1 = experiment: Plaque reduction assay, HSV-1, Vero cells; format: cell-based, HSV-1 (Kos-1); conditions: Human alphaherpesvirus 1, Vero, plaque reduction, Vero cells
Experimental: as §1, §2, §3, §4, §5, §6, §7, §8, §9, §10, §11, §12

[1] = complete inhibition of syncytia formation

SMILES | HIV-HXB ED100 (HIV-HXB; [1]) | HIV-RF-II ED100 (HIV-RF-II; [1]) | EC100 (HIV-HXB) | EC100 (HIV-RF-II) | IC50 (HSV-2) | IC50 (HSV-1)
CCCC(=O)Oc1c2c(S(=O)(=O)O)cc3cc(S(=O)(=O)O)c(c(OC(=O)CCC)c13)Cc1c(S(=O)(=O)O)cc3cc(S(=O)(=O)O)c(c(OC(=O)CCC)c3c1OC(=O)CCC)Cc1c(S(=O)(=O)O)cc3cc(S(=O)(=O)O)c(c(OC(=O)CCC)c3c1OC(=O)CCC)Cc1c(S(=O)(=O)O)cc3cc(S(=O)(=O)O)c(c(OC(=O)CCC)c3c1OC(=O)CCC)C2 [KY-288] | 8 | 16 | – | – | – | –
CCCCC(=O)Oc1c2c(S(=O)(=O)O)cc3cc(S(=O)(=O)O)c(c(OC(=O)CCCC)c13)Cc1c(S(=O)(=O)O)cc3cc(S(=O)(=O)O)c(c(OC(=O)CCCC)c3c1OC(=O)CCCC)Cc1c(S(=O)(=O)O)cc3cc(S(=O)(=O)O)c(c(OC(=O)CCCC)c3c1OC(=O)CCCC)Cc1c(S(=O)(=O)O)cc3cc(S(=O)(=O)O)c(c(OC(=O)CCCC)c3c1OC(=O)CCCC)C2 [KY-289] | – | – | 16 µg/mL | 32 µg/mL | – | –
CCCCCC(=O)Oc1c2c(S(=O)(=O)O)cc3cc(S(=O)(=O)O)c(c(OC(=O)CCCCC)c13)Cc1c(S(=O)(=O)O)cc3cc(S(=O)(=O)O)c(c(OC(=O)CCCCC)c3c1OC(=O)CCCCC)Cc1c(S(=O)(=O)O)cc3cc(S(=O)(=O)O)c(c(OC(=O)CCCCC)c3c1OC(=O)CCCCC)Cc1c(S(=O)(=O)O)cc3cc(S(=O)(=O)O)c(c(OC(=O)CCCCC)c3c1OC(=O)CCCCC)C2 [KY-291] | – | – | 16 µg/mL | 32 µg/mL | – | –
CC=CC(=O)Oc1c2c(S(=O)(=O)O)cc3cc(S(=O)(=O)O)c(c(OC(=O)C=CC)c13)Cc1c(S(=O)(=O)O)cc3cc(S(=O)(=O)O)c(c(OC(=O)C=CC)c3c1OC(=O)C=CC)Cc1c(S(=O)(=O)O)cc3cc(S(=O)(=O)O)c(c(OC(=O)C=CC)c3c1OC(=O)C=CC)Cc1c(S(=O)(=O)O)cc3cc(S(=O)(=O)O)c(c(OC(=O)C=CC)c3c1OC(=O)C=CC)C2 [KY-293] | – | – | 16 µg/mL | 63 µg/mL | – | –
O=C(O)CCCCCCC(=O)Oc1c2c(S(=O)(=O)O)cc3cc(S(=O)(=O)O)c(c(OC(=O)CCCCCCC(=O)O)c13)Cc1c(S(=O)(=O)O)cc3cc(S(=O)(=O)O)c(c(OC(=O)CCCCCCC(=O)O)c3c1OC(=O)CCCCCCC(=O)O)Cc1c(S(=O)(=O)O)cc3cc(S(=O)(=O)O)c(c(OC(=O)CCCCCCC(=O)O)c3c1OC(=O)CCCCCCC(=O)O)Cc1c(S(=O)(=O)O)cc3cc(S(=O)(=O)O)c(c(OC(=O)CCCCCCC(=O)O)c3c1OC(=O)CCCCCCC(=O)O)C2 [KY-294] | – | – | 16 µg/mL | 16 µg/mL | – | –
O=C(O)CCCCCOc1c2c(S(=O)(=O)O)cc3cc(S(=O)(=O)O)c(c(OCCCCCC(=O)O)c13)Cc1c(S(=O)(=O)O)cc3cc(S(=O)(=O)O)c(c(OCCCCCC(=O)O)c3c1OCCCCCC(=O)O)Cc1c(S(=O)(=O)O)cc3cc(S(=O)(=O)O)c(c(OCCCCCC(=O)O)c3c1OCCCCCC(=O)O)Cc1c(S(=O)(=O)O)cc3cc(S(=O)(=O)O)c(c(OCCCCCC(=O)O)c3c1OCCCCCC(=O)O)C2 [KY-307] | – | – | 8 µg/mL | 32 µg/mL | – | –
O=C(O)CNS(=O)(=O)c1cc2cc(S(=O)(=O)NCC(=O)O)c3c(O)c2c(O)c1Cc1c(S(=O)(=O)NCC(=O)O)cc2cc(S(=O)(=O)NCC(=O)O)c(c(O)c2c1O)Cc1c(S(=O)(=O)NCC(=O)O)cc2cc(S(=O)(=O)NCC(=O)O)c(c(O)c2c1O)Cc1c(S(=O)(=O)NCC(=O)O)cc2cc(S(=O)(=O)NCC(=O)O)c(c(O)c2c1O)C3 [KY-357] | – | – | 32 µg/mL | 63 µg/mL | – | –
O=S(=O)(NO)c1cc2cc(S(=O)(=O)NO)c3c(O)c2c(O)c1Cc1c(S(=O)(=O)NO)cc2cc(S(=O)(=O)NO)c(c(O)c2c1O)Cc1c(S(=O)(=O)NO)cc2cc(S(=O)(=O)NO)c(c(O)c2c1O)Cc1c(S(=O)(=O)NO)cc2cc(S(=O)(=O)NO)c(c(O)c2c1O)C3 [KY-359] | – | – | 32 µg/mL | 63 µg/mL | 4.2 µg/mL (≈ 2.9 µM) | 5.75 µg/mL (≈ 3.97 µM)
O=S(=O)(O)c1cc2c(O)c(c1)Cc1cc(S(=O)(=O)O)cc(c1O)Cc1cc(S(=O)(=O)O)cc(c1O)Cc1cc(S(=O)(=O)O)cc(c1O)C2 [Y-49] | – | – | – | – | 10 µg/mL (≈ 13.4 µM) | 5 µg/mL (≈ 6.71 µM)
O=C(O)C1c2c(S(=O)(=O)O)cc3cc(S(=O)(=O)O)c(c(O)c3c2O)C(C(=O)O)c2c(S(=O)(=O)O)cc3cc(S(=O)(=O)O)c(c(O)c3c2O)C(C(=O)O)c2c(S(=O)(=O)O)cc3cc(S(=O)(=O)O)c(c(O)c3c2O)C(C(=O)O)c2c(S(=O)(=O)O)cc3cc(S(=O)(=O)O)c1c(O)c3c2O (stereo not drawn) [Y-66] | – | – | – | – | > 10 µg/mL | > 10 µg/mL
O=S(=O)(O)c1cc2c(O)c(c1)Cc1cc(S(=O)(=O)O)cc(c1O)Cc1cc(S(=O)(=O)O)cc(c1O)Cc1cc(S(=O)(=O)O)cc(c1O)Cc1cc(S(=O)(=O)O)cc(c1O)Cc1cc(S(=O)(=O)O)cc(c1O)C2 [Y-77] | – | – | – | – | 11 µg/mL (≈ 9.85 µM) | 8 µg/mL (≈ 7.16 µM)
